According to patent US9669028B2, “Substituted 5-(pyrazin-2-yl)-1H-pyrazolo [3, 4-B] pyridine and pyrazolo [3, 4-B] pyridine derivatives as protein kinase inhibitors” (Arrien Pharmaceuticals LLC, priority 2011, dated 2017):
Values after ≈ are worked out from the molar mass of the structure shown.

Experiments:
Rat pharmacokinetics = details: male, Sprague Dawley
Excerpt: To investigate the pharmacokinetic profiles of test compound following intravenous bolus administration and oral gavage in male Sprague Dawley rats.

DYRK1A = DYRK1A (Homo sapiens (Human), UniProt Q13627); test: In vitro DYRK1A inhibition assay; format: biochemical
[1] = system: MPTP-injected C57 black mice; test: MPTP mouse model of Parkinson's disease, oral pre-treatment; format: in vivo
recombinant human MAO-B = recombinant human MAO-B (Homo sapiens (Human), UniProt P27338); test: Inhibition of monoamine oxidase MAO-B; format: biochemical; details: kynuramine 50 μM, 25 min at 37° C.
Experimental: (§1) Test compounds (0.01-100 μM) final DMSO concentration 0.1%, were incubated with recombinant human MAO-A (2 μg/mL) or MAO-B (2 μg/mL) in the presence of the probe substrate kynuramine (50 μM) for 25 min at 37° C. […] The reactions were terminated by addition of methanol containing internal standard for analytical quantification. The quenched samples were incubated at 4° C. for 10 min and centrifuged at 4° C. for 10 min. The supernatant was removed and analyzed by LC-MS/MS for the probe metabolite 4-hydroxyquinoline.

[2] = system: 299 protein kinases+17 additional preview kinases; test: Protein Kinase Selectivity Profiler; format: biochemical, human; details: ABL1 T315I, ALK2, ARK5, Aurora A/B/C, BRAF, C-KIT, CLK1-4, CSF1R, DYRK1A-4, FLT3, GSK3β, JAK1-3, KDR, LCK ... TRKA-C; single dose; 10 μM ATP
Experimental: In vitro profiling of the 317 member kinase panel was performed at Reaction Biology Corporation using the “HotSpot” assay platform. Briefly, specific kinase/substrate pairs along with required cofactors were prepared in reaction buffer; 20 mM Hepes (pH 7.5), 10 mM MgCl2, 1 mM EGTA, 0.02% Brij35, 0.02 mg/ml BSA, 0.1 mM Na3VO4, 2 mM DTT, 1% DMSO. Compounds were delivered into the reaction, followed ˜20 min later by addition of a mixture of ATP (Sigma) and 33P ATP (PerkinElmer) to a final concentration of 10 μM. Reactions were carried out at 25° C. for 120 min, followed by spotting of the reactions onto P81 ion exchange filter paper (Whatman). Unbound phosphate was removed by extensive washing of filters in 0.75% phosphoric acid. […] IC50 values and curve fits were obtained using Prism (GraphPad Software). Kinome tree representations were prepared using Kinome Mapper (http://www.reactionbiology.com/apps/kinome/mapper/Launch Kinome.htm). Specifically for the LRRK2 enzyme the substrate LRRKtide (gene bank and protein access numbers NP_940980.2 Q5S007) and clone aa 970-2527 expressed in baculovirus in insect cells with N-terminal GST tag was employed in the study protocol. In the case of DYRK1A (SEQ ID NO 16) the substrate casein (gene bank and protein access numbers NP_001387 Q13627) full length clone expressed in insect with n-terminal tag was used.
A control compound was tested in 10-dose IC50 mode with 3-fold serial dilution starting at 20 μM. Reactions were carried out at 10 μM ATP. Data pages include raw data, % Enzyme activity (relative to DMSO controls), and curve fits.

LRRK2 G2019S = LRRK2 G2019S (Homo sapiens (Human), UniProt Q5S007, G2019S); test: LRRK2 G2019S Kinase Assay; format: biochemical; details: 10 μM ATP
Procedure, shortened: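 Radiometric filter-binding assay: enzyme, substrate peptide and compound were mixed on ice, ATP added, then incubated 20 min at 30° C. Reaction was stopped with phosphoric acid and the peptide captured on filters. Incorporated radioactivity was read by scintillation counting; staurosporine served as reference.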

recombinant human MAO-A = recombinant human MAO-A (Homo sapiens (Human), UniProt P21397); test: Inhibition of monoamine oxidase MAO-A; format: biochemical; details: kynuramine 50 μM, 25 min at 37° C.
Experimental: as §1

LRRK2 = LRRK2 (Homo sapiens (Human), UniProt Q5S007); test: LRRK2 Kinase Assay; format: biochemical; details: 10 μM ATP
Procedure, shortened: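 Radiometric filter-binding assay: compound pre-incubated ~20 min with kinase and substrate peptide in 20 mM HEPES pH 7.5, 10 mM MgCl2, 1% DMSO, then 10 μM ATP with 33P-ATP added.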

[3] = system: Rat hepatoma (H4IIE) cell line; test: In vitro toxicology, general cytotoxicity; format: cell-based; details: rat, 24 h
Experimental: Cells were seeded into 96-well plates and cultured in medium containing 20% bovine serum. […] General cytotoxicity was evaluated by monitoring membrane integrity (MBR, cell supernatant), cell mass (PI) and mitochondrial function (cellular ATP levels). Rotenone was included as a positive control because it produces measurable effects in all three assays. DMSO at 0.5% in medium was included as a negative control. Three wells per exposure concentration were used in each assay. Results are summarized in Table 8 and are expressed as percent of control, with control values set at 100%. […] Test compounds 13 and 13 HCl were rank-ordered from most to least toxic based on individual membrane integrity and ATP responses as well as resultant TC50 values.
Test compounds 13 and 13 HCl were rank-ordered from highest to lowest probability of producing toxicity based first on membrane toxicity, then on ATP, and finally on cell mass (PI). It is important to note that within a given grouping compounds may be classified as to their primary effect being either cytotoxic, cytostatic, or reducing mitochondrial function. In general, compound responses above 80% of vehicle control are considered to be low-to-no effect, moderates generally rank 80% to 50% of vehicle control, and those compounds that cross the 50% mark are considered to have higher probability of toxicity.

[4] = orally administered, pre-treatment

Chain of recombinant human MAO-A (P21397 whole entry): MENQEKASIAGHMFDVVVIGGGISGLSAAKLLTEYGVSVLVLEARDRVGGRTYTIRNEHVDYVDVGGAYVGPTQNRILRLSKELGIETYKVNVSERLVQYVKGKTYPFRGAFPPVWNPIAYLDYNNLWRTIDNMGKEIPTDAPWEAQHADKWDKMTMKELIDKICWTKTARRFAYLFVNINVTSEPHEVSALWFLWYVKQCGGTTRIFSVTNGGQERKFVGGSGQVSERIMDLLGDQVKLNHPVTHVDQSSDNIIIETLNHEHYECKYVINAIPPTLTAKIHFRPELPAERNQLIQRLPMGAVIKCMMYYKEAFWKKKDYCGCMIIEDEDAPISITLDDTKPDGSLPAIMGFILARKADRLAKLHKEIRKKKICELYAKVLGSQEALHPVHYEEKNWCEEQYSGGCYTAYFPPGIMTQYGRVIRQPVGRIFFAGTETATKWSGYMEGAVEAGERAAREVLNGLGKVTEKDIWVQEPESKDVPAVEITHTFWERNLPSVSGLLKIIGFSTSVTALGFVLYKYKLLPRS
Chain of LRRK2 G2019S (Q5S007 970-2527 G2019S): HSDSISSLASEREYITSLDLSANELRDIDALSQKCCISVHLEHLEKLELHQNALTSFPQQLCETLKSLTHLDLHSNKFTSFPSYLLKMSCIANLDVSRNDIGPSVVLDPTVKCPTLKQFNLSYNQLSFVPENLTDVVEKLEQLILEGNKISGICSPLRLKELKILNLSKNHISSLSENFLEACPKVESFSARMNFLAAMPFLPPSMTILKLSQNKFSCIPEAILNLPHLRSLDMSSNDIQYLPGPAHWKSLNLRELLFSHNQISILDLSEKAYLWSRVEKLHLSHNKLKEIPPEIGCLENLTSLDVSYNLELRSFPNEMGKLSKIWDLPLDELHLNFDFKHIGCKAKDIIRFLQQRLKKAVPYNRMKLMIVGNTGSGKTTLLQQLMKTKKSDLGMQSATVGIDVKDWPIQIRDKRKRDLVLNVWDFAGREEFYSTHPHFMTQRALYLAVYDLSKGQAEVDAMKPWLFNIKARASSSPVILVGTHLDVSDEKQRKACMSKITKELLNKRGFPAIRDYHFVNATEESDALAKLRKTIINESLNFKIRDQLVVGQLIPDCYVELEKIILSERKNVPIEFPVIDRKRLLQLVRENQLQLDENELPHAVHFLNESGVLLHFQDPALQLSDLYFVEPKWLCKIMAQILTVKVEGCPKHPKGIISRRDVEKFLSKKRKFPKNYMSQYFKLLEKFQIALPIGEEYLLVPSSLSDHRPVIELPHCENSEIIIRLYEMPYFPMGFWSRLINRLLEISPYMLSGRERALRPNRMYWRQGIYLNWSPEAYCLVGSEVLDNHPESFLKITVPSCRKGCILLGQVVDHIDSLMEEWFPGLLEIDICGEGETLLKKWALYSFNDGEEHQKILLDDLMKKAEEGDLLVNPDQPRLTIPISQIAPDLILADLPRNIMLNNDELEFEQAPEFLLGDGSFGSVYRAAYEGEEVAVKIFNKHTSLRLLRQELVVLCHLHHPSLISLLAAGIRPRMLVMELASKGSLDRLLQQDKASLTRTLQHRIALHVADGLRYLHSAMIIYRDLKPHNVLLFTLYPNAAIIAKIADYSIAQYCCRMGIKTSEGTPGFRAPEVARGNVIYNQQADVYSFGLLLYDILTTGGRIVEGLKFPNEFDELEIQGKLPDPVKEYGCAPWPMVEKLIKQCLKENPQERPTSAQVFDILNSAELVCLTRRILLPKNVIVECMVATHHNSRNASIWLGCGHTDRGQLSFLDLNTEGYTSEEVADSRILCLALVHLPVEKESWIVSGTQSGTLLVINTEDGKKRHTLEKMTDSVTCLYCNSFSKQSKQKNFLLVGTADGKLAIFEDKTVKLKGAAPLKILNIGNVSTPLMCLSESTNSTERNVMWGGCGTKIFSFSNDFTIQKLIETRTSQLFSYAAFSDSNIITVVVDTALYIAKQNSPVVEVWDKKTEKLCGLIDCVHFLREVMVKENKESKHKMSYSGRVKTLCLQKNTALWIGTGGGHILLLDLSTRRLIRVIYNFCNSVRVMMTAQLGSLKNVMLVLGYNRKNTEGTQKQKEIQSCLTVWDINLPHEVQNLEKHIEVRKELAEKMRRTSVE
Chain of LRRK2 (Q5S007 970-2527): as the sequence (Q5S007 970-2527 G2019S) above, with S1050G counted along it
Chain of recombinant human MAO-B (P27338 whole entry): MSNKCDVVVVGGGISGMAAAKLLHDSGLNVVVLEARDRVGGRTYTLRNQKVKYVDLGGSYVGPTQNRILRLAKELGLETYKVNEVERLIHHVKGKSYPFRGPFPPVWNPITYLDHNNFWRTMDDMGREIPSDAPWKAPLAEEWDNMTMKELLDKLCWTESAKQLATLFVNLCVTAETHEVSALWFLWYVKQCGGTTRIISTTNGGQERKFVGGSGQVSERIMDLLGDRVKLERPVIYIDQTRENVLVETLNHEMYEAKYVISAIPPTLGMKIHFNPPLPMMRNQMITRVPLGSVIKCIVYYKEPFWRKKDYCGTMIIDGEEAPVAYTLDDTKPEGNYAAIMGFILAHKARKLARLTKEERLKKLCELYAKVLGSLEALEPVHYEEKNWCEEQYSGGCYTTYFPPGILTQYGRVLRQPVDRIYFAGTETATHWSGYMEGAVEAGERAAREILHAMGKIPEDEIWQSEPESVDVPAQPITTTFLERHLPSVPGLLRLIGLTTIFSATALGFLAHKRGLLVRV

Cc1n[nH]c2ncc(-c3cncc(NC4CCN(C)CC4)n3)cc12 [Compound 13, 6-(3methyl-1H-pyrazolo[3,4-b]pyridine-5yl)-N-(1-methylpiperidine-4yl)pyrazin-2-amine]
AUC(0-t) (Rat pharmacokinetics; in vivo, iv, 5 mg/kg): 1020 ng·h/mL | Vd (Rat pharmacokinetics; in vivo, iv, 5 mg/kg): 15.2 L/kg | clearance (Rat pharmacokinetics; in vivo, iv, 5 mg/kg): 123 mL/min/kg | AUC(0-t) (Rat pharmacokinetics; in vivo, po, 30 mg/kg): 1040 ng·h/mL | Cmax (Rat pharmacokinetics; in vivo, po, 30 mg/kg): 133 ng/mL | half-life (Rat pharmacokinetics; rat, iv, 5 mg/kg): 2.26 h | F (Rat pharmacokinetics; rat, po, 30 mg/kg): 24% | Tmax (Rat pharmacokinetics; rat, po, 30 mg/kg): 6.7 h | IC50 (DYRK1A): < 0.5 µM | protection against MPTP-induced TH cell loss and dopaminergic degeneration in substantia nigra and striatum ([1]; 10 mg/kg and 30 mg/kg oral): dose-dependent protection | locomotor activities in MPTP-injected mice [1, 4]: Improve Locomotor Activities | striatal dopamine levels in MPTP treated mice [1, 4]: Restore Striatal Dopamine Levels | IC50 (recombinant human MAO-B): > 100 µM | solubility (physchem): 50 µM (≈ 16.2 µg/mL) | activity against kinases in broader scope, relative to DMSO control [2]: 5-15% | IC50 (LRRK2 G2019S): < 0.5 µM | IC50 (recombinant human MAO-A): > 100 µM | IC50 (LRRK2): < 0.5 µM | ATP TC50 [3]: >50 µM | Cell Mass TC50 [3]: >50 µM | Mem Tox TC50 [3]: >50 µM | ATP % Control ([3]; 5 μM): 99% | Cell Mass % Control ([3]; 5 μM): 93% | Mem Tox % Control ([3]; 5 μM): 100% | ATP % Control ([3]; 10 μM): 99% | Cell Mass % Control ([3]; 10 μM): 88% | Mem Tox % Control ([3]; 10 μM): 96% | ATP % Control ([3]; 50 μM): 74% | Cell Mass % Control ([3]; 50 μM): 71% | Mem Tox % Control ([3]; 50 μM): 94%
